Activity calls are given as the source filed them. No cut-off for these calls is given here.
What was measured:
Oryctolagus cuniculus [1] = species: Oryctolagus cuniculus; test: Inhibition of rabbit muscle glycogen phosphorylase b at 2.5 mM
Oryctolagus cuniculus [2] = species: Oryctolagus cuniculus; test: Inhibition of rabbit muscle glycogen phosphorylase b at 625 uM

inhibition (Oryctolagus cuniculus [1]): 16%
Activity (Oryctolagus cuniculus [2]): inactive
SMILES: O=C(NC1([C@@H]2O[C@H](CO)[C@@H](O)[C@H](O)[C@H]2O)CC1)c1ccccc1

Reference: ChEMBL document CHEMBL1139416, “Synthesis of a C-glucosylated cyclopropylamide and evaluation as a glycogen phosphorylase inhibitor” (Bioorg Med Chem Lett, 2008)
